Experimental findings from ChEMBL document CHEMBL1146482, “Natural products from endophytic microorganisms” (J Nat Prod, 2004) are described below.

In one assay the test system is Bacillus anthracis. In words: Antimicrobial activity against Bacillus anthracis. The class given is functional.
For the next assay, the system named is Plasmodium falciparum. As to the kind of experiment: Antiplasmodial activity against Plasmodium falciparum. It is filed as functional. The settings on record: read-out: LD50 (the source's name).
The subject of another assay is Lymphocyte. As to the kind of experiment: Immunosuppressive activity in lymphocytes by mixed lymphocyte reaction assay. It is filed as functional, cell-based.
The next assay relates to Thymocyte. In words: Immunosuppressive activity in thymocytes by thymocyte proliferation assay. It is filed as functional, cell-based.

pIC50: −log10 of the molar value. In brackets after ≈: the same amount, converted by molar mass.

As usually defined, the MIC is the smallest concentration in the dilution series that meets the test's criterion for growth inhibition. Lower therefore signals a more susceptible organism. In the case of `CS[C@H]1SC[C@H]2C(=O)N(C)[C@@H](C(C)C)C(=O)OC[C@@H](NC(=O)c3cnc4ccccc4n3)C(=O)N[C@@H](C)C(=O)N(C)[C@@H]1C(=O)N(C)[C@@H](C(C)C)C(=O)OC[C@@H](NC(=O)c1cnc3ccccc3n1)C(=O)N[C@@H](C)C(=O)N2C` [ECHINOMYCIN], the MIC in the assay on Bacillus anthracis came to 1 µg/mL (≈ 0.908 µM). Further, the LC50 with Plasmodium falciparum worked out at 0.007 µg/mL (≈ 0.00636 µM).

In general, pIC50 refers to the IC50 on a negative log10 scale, so that one unit is a factor of ten. Regarding `C=C1CC[C@H]2[C@]3(C)C[C@@H](C=C(C)C)O[C@H]3CC[C@]2(C)[C@@H]1Cc1c(O)c(C)c(C)oc1=O` [SUBGLUTINOL A], the pIC50 in the assay with Lymphocyte and with Thymocyte was 7.00 each time.

With `C=C1CC[C@H]2[C@]3(C)C[C@H](C=C(C)C)O[C@H]3CC[C@]2(C)[C@@H]1Cc1c(O)c(C)c(C)oc1=O` [SUBGLUTINOL B], the pIC50 with Lymphocyte and with Thymocyte was 7.00 in each case.
